Experimental data: patent publication US8461348B2, “Heterocyclic derivative and use thereof” (Takeda Pharmaceutical Company Limited, priority 2008, dated 2013)

These compounds were tested against T1, Purified sGC (Homo sapiens, UniProt Q02153) (assay: Measurement of sGC activation in vitro (cGMP production by purified sGC)). Conditions: 20 min; test compound diluted to 30 μM, 10 μL/well plus equal volumes of sGC and GTP; 20 min at room temperature; cGMP without compound (1% DMSO) = 100%; read-out: cGMP amount (%) in experiment system.
T1 sequence (Q02153 1-619): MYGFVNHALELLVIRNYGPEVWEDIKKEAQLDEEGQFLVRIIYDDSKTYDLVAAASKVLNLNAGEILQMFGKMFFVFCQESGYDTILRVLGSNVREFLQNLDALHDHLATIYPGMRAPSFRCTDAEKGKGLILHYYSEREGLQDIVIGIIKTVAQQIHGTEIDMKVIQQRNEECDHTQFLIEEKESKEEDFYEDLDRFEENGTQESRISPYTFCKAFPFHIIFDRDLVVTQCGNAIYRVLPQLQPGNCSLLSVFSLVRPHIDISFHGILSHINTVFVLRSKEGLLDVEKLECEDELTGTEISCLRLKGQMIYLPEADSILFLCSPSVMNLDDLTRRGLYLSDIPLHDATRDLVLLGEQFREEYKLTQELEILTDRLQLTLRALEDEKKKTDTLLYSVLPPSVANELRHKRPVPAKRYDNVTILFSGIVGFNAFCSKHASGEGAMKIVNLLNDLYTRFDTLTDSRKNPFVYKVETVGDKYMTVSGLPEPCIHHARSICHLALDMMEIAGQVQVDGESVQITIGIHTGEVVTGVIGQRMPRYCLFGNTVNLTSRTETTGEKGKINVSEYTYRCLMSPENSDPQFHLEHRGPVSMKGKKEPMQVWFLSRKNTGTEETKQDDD
T1 sequence (Q02108 1-690 partner): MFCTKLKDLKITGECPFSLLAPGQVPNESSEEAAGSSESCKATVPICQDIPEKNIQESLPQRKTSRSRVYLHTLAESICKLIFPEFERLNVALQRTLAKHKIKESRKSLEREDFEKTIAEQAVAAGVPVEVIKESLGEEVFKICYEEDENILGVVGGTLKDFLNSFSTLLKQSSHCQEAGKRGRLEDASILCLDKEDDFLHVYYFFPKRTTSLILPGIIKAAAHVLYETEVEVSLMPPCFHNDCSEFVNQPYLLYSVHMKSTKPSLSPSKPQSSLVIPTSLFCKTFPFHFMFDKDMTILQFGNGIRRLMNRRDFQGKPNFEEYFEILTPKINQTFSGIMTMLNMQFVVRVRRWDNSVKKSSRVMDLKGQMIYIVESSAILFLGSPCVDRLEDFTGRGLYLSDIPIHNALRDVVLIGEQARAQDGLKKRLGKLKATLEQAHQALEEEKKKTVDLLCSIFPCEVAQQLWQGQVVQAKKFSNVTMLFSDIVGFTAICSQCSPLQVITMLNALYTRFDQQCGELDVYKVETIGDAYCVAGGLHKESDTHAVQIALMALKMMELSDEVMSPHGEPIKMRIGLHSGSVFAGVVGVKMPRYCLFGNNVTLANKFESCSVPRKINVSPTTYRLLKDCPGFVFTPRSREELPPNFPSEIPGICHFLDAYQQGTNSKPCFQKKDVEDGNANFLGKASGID
Assay type: biochemical
Method: To evaluate sGC activation of each compound, the following in vitro tests were performed.
A test compound was diluted with a reaction buffer (50 mM HEPES, 5 mM MgCl2, 2 mM DTT, 0.5 mM IBMX (isobutylmethylxanthine), 0.01% BSA) to 30 μM (3% DMSO), and dispensed to a 384 well plate (manufactured by REMP) at 10 μL/well. Purified sGC was diluted with the reaction buffer to 240 ng/mL and added to the plate at 10 μL/well. Then, 120 μM GTP prepared with the reaction buffer was added to the reaction plate at 10 μL/well to initiate an enzyme reaction. After stirring at room temperature for 20 min to allow reaction, 125 mM Na2CO3 was added at 15 μL/well to quench the reaction. Thereafter, 125 mM Zn Acetate (zinc acetate) was added at 15 μL/well to allow precipitation of unreacted GTP. Then, the amount of the resulting cGMP contained in the supernatant was quantified using a CatchPoint cGMP assay kit (molecular devices). The method followed the protocol attached to the assay kit. For detection, Super Signal ELISA Femto (Thermo) was used, and the amount of luminescence was measured with ARVO (Perkinelmer). The sGC activity with addition of the compound was calculated using the amount of cGMP produced without addition of the compound (in the presence of 1% DMSO) as 100%.

Point of comparison: `O=C(O)c1cnn(-c2nc(COc3ccc(Cl)c(Cl)c3)cs2)c1C(F)(F)F` [Ref. Ex. 22, 1-[4-[(3,4-dichlorophenoxy)methyl]-1,3-thiazol-2-yl]-5-(trifluoromethyl)-1H-pyrazole-4-carboxylic acid], activity at 10 µM 766%. Against it:
- O=C(O)c1cnn(Cc2nc(-c3cccc(C(F)(F)F)c3)cs2)c1 [Example 1, 1-({4-[3-(trifluoromethyl)phenyl]-1,3-thiazol-2-yl}methyl)-1H-pyrazole-4-carboxylic acid] — higher, > 1000%
- Cc1cc(C(=O)O)nn1Cc1nc(-c2ccc(Cl)c(Cl)c2)cs1 [Example 6, 1-{[4-(3,4-dichlorophenyl)-1,3-thiazol-2-yl]methyl}-5-methyl-1H-pyrazole-3-carboxylic acid] — lower, 420%
- Cc1c(C(=O)O)cnn1Cc1nc(-c2cccc(C(F)(F)F)c2)cs1 [Example 13, 5-methyl-1-({4-[3-(trifluoromethyl)phenyl]-1,3-thiazol-2-yl}methyl)-1H-pyrazole-4-carboxylic acid] — higher, > 1000%
- FC(F)(F)c1cccc(-c2csc(Cn3cc(-c4nn[nH]n4)cn3)n2)c1 [Example 18, 5-[1-({4-[3-(trifluoromethyl)phenyl]-1,3-thiazol-2-yl}methyl)-1H-pyrazol-4-yl]-2H-tetrazole] — lower, 503%
- O=C(O)c1cnn(Cc2csc(-c3cccc(C(F)(F)F)c3)n2)c1 [Example 21, 1-({2-[3-(trifluoromethyl)phenyl]-1,3-thiazol-4-yl}methyl)-1H-pyrazole-4-carboxylic acid] — higher, > 1000%
- O=C(O)c1cnn(Cc2ncc(-c3cccc(C(F)(F)F)c3)s2)c1 [Example 23, 1-({5-[3-(trifluoromethyl)phenyl]-1,3-thiazol-2-yl}methyl)-1H-pyrazole-4-carboxylic acid] — higher, 996%
- O=C(O)c1cnn(Cc2nc(-c3cccc(C(F)(F)F)c3F)cs2)c1 [Example 52, 1-({4-[2-fluoro-3-(trifluoromethyl)phenyl]-1,3-thiazol-2-yl}methyl)-1H-pyrazole-4-carboxylic acid] — higher, > 1000%
- Cc1sc(-c2cccc(C(F)(F)F)c2F)nc1Cn1cc(C(=O)O)cn1 [Example 80, 1-({2-[2-fluoro-3-(trifluoromethyl)phenyl]-5-methyl-1,3-thiazol-4-yl}methyl)-1H-pyrazole-4-carboxylic acid] — higher, > 1000%
- Cc1sc(-c2cc(Cl)cc(C(F)(F)F)c2)nc1Cn1cc(C(=O)O)cn1 [Example 83, 1-({2-[3-chloro-5-(trifluoromethyl)phenyl]-5-methyl-1,3-thiazol-4-yl}methyl)-1H-pyrazole-4-carboxylic acid] — higher, > 1000%
- O=C(O)c1ccc(Cc2nc(-c3ccc(Cl)c(Cl)c3)cs2)cc1 [Example 179, 4-{[4-(3,4-dichlorophenyl)-1,3-thiazol-2-yl]methyl}benzoic acid] — higher, > 1000%
- O=C(O)c1ccc(Cc2nc(-c3cccc(C(F)(F)F)c3F)cs2)cc1 [Example 186, 4-({4-[2-fluoro-3-(trifluoromethyl)phenyl]-1,3-thiazol-2-yl}methyl)benzoic acid] — higher, > 1000%
- O=C(O)c1cnn(-c2nc(-c3ccc(Cl)c(Cl)c3)cs2)c1C(F)(F)F [Ref. Ex. 1, 1-[4-(3,4-dichlorophenyl)-1,3-thiazol-2-yl]-5-(trifluoromethyl)-1H-pyrazole-4-carboxylic acid] — higher, > 1000%
- O=C(O)c1cnn(-c2nc(-c3ccc(Cl)s3)cs2)c1C(F)(F)F [Ref. Ex. 3, 1-[4-(5-chlorothiophen-2-yl)-1,3-thiazol-2-yl]-5-(trifluoromethyl)-1H-pyrazole-4-carboxylic acid] — higher, > 1000%
- O=C(O)c1cnn(-c2nc(-c3ccc(Cl)c(Cl)c3)cs2)c1C1CC1 [Ref. Ex. 4, 5-cyclopropyl-1-[4-(3,4-dichlorophenyl)-1,3-thiazol-2-yl]-1H-pyrazole-4-carboxylic acid] — higher, > 1000%
- Cc1c(C(=O)O)cnn1-c1nc(-c2ccc(Cl)c(Cl)c2)cs1 [Ref. Ex. 5, 1-[4-(3,4-dichlorophenyl)-1,3-thiazol-2-yl]-5-methyl-1H-pyrazole-4-carboxylic acid] — higher, > 1000%
- O=C(O)c1cnn(-c2nc(-c3cccc(OC(F)(F)F)c3)cs2)c1C(F)(F)F [Ref. Ex. 10, 1-{4-[3-(trifluoromethoxy)phenyl]-1,3-thiazol-2-yl}-5-(trifluoromethyl)-1H-pyrazole-4-carboxylic acid] — higher, > 1000%
- O=C(O)c1cnn(-c2nc(-c3ccc(Cl)c(Cl)c3)cs2)c1 [Ref. Ex. 17, 1-[4-(3,4-dichlorophenyl)-1,3-thiazol-2-yl]-1H-pyrazole-4-carboxylic acid] — higher, > 1000%
- FC(F)(F)c1c(-c2nn[nH]n2)cnn1-c1nc(-c2ccc(Cl)c(Cl)c2)cs1 [Ref. Ex. 18, 5-{1-[4-(3,4-dichlorophenyl)-1,3-thiazol-2-yl]-5-(trifluoromethyl)-1H-pyrazol-4-yl}-2H-tetrazole] — higher, > 1000%
- CS(=O)(=O)NC(=O)c1cnn(-c2nc(-c3ccc(Cl)c(Cl)c3)cs2)c1C(F)(F)F [Ref. Ex. 19, 1-[4-(3,4-dichlorophenyl)-1,3-thiazol-2-yl]-N-(methylsulfonyl)-5-(trifluoromethyl)-1H-pyrazole-4-carboxamide] — higher, > 1000%
- O=C(Nc1cccc(Cl)c1)c1csc(-n2ncc(C(=O)O)c2C(F)(F)F)n1 [Ref. Ex. 20, 1-{4-[(3-chlorophenyl)carbamoyl]-1,3-thiazol-2-yl}-5-(trifluoromethyl)-1H-pyrazole-4-carboxylic acid] — higher, > 1000%
- O=C(O)c1cnn(-c2nc(CCc3cccc(C(F)(F)F)c3)cs2)c1C(F)(F)F [Ref. Ex. 24, 5-(trifluoromethyl)-1-(4-{2-[3-(trifluoromethyl)phenyl]ethyl}-1,3-thiazol-2-yl)-1H-pyrazole-4-carboxylic acid] — higher, > 1000%
- O=C(O)c1cnn(-c2nc(Cc3cccc(C(F)(F)F)c3)cs2)c1C(F)(F)F [Ref. Ex. 25, 5-(trifluoromethyl)-1-{4-[3-(trifluoromethyl)benzyl]-1,3-thiazol-2-yl}-1H-pyrazole-4-carboxylic acid] — higher, > 1000%

Each compound was assayed on male SHR (assay: Measurement of hypotensive action in vivo in SHR). Conditions: single oral administration, 10 mg/kg, 5 hr after administration.
Parameters: species or system rat
Method: Animal used was male SHR (32- to 40-week-old, SHR/Izm, Japan SLC, Inc.). Two days before drug administration, a cannula (SP10+SP45, Natsume Seisakusho Co., Ltd.) filled with heparin physiological saline (200 U/mL, Ajinomoto Pharma Co., Ltd.) was inserted from the femoral artery under anesthesia with pentobarbital Na (50 mg/kg, i.p., Kyoritsu Seiyaku Corporation) and dwelled. The other end of the cannula was subcutaneously passed and exposed on the back of the neck where it was fixed. After a recovery period, the artery dwelling cannula was connected to a pressure transducer (DTX Plus DT-XXAD, Japan Becton Dickinson) and output on a pen recorder (linear recorder WR3320-4µL, Graphtec Corporation) via a polygraph (AP-641G, Nihon Kohden Co.), and the blood pressure waveform was recorded. The heart rate was calculated from the blood pressure waveform. After stable blood pressure was obtained, a solvent or a drug was orally administered once, and average blood pressure and average heart rate were measured over time. The blood pressure was measured under fasting, and the rats were reared under free ingestion of feed and water except the blood pressure measurement day. The drug was suspended in 0.5% methylcellulose aqueous solution. The administration dose was 2 mL/kg.

Point of comparison: `Cc1sc(-c2cc(Cl)cc(C(F)(F)F)c2)nc1Cn1cc(C(=O)O)cn1` [Example 83, 1-({2-[3-chloro-5-(trifluoromethyl)phenyl]-5-methyl-1,3-thiazol-4-yl}methyl)-1H-pyrazole-4-carboxylic acid], “hypotension after 5 hr from the administration” value 14.5 mmHg. Against it:
- Cc1sc(-c2cccc(C(F)(F)F)c2F)nc1Cn1cc(C(=O)O)cn1 [Example 80, 1-({2-[2-fluoro-3-(trifluoromethyl)phenyl]-5-methyl-1,3-thiazol-4-yl}methyl)-1H-pyrazole-4-carboxylic acid] — higher, 14.7 mmHg

Same assay, conditions: single oral administration, 30 mg/kg, 5 hr after administration

Point of comparison: `O=C(O)c1cnn(Cc2nc(-c3cccc(C(F)(F)F)c3F)cs2)c1` [Example 52, 1-({4-[2-fluoro-3-(trifluoromethyl)phenyl]-1,3-thiazol-2-yl}methyl)-1H-pyrazole-4-carboxylic acid], “hypotension after 5 hr from the administration” value 29.4 mmHg. Against it:
- O=C(O)c1cnn(Cc2nc(-c3cccc(C(F)(F)F)c3)cs2)c1 [Example 1, 1-({4-[3-(trifluoromethyl)phenyl]-1,3-thiazol-2-yl}methyl)-1H-pyrazole-4-carboxylic acid] — lower, 15.5 mmHg
